The values that follow come from patent US20250018019A1, “TREATMENT OF INTERFERON DRIVEN INFLAMMATION” (The Provost, Fellows, Foundation Scholars and the other …, priority 2023, published 2025).

Each structure is given as a SMILES string. Structures can show the parent of a compound that is named as a salt.

Experiment [1] deals with BMDMs. Put plainly: RT-qPCR gene expression in BMDMs. The conditions noted are these: for IL-1β expression / Il10 expression / Tnfa expression: BMDMs pre-treated 3 h; for Ifnb1 expression following Nrf2 silencing: Nrf2 siRNA. The format is cell-based, mouse. The procedure: (§1) All compounds used DMSO as a vehicle except for 4-hydroxy tamoxifen (EtOH), NAC (PBS), and AOAA for tracing experiments (Media). LPS was used at a concentration of 100 ng/ml for indicated timepoints (2, 3, 4, 6, 8, 24, 48 h). FHIN1 (10 or 20 μM), MMF (50 or 100 μM), DMF (25 μM), AOAA (5 mM), oligomycin (10 μM), CCCP (50 μM) NAC (1 mM), and IMT1 (10 μM) pre-treatments were performed for 3 h prior the addition of LPS. Cells were treated with valinomycin (10 nM) 15 mins before LPS stimulation. Anti-CD210 or IgG control (10 μg/ml) antibodies were added to cells 1 h prior to LPS stimulation. Recombinant mouse IL-10 protein (100 ng/ml) was added to cells at the same time as LPS. Cells were treated with IFN-B1 (220 ng/ml) for 3 h. Cells were treated with C-178 (1 μM) 1 h prior to LPS stimulation or transfection with 2′3′-cGAMP (1.5 μg/ml) for 4 hrs to achieve cGAS-STING activation. Cells were treated with ODN 2088 (1 μM) for 1 hr prior to LPS stimulation or transfection with CPG ODN 1826 (1.5 μg/ml) to achieve TLR9 activation. 3 different timepoints of 4-hydroxy tamoxifen (TAM) (600 nM or 2 μM) or EtOH treatment were performed-these are specified in the individual figure legends. For ‘48 h’ treatments EtOH/TAM was added on day 5 of 6 during the BMDM differentiation protocol. On day 6 they were plated with EtOH/TAM (left overnight) and treated the following day. For ‘72 h’ treatments EtOH/TAM was added on day […] of 6 during the BMDM differentiation protocol. On day 6 they were plated with EtOH/TAM (left overnight) and treated the following day. For ‘96 h’ treatments EtOH/TAM was added on day […] of 6 during the BMDM differentiation protocol. On day 6 they were plated with EtOH/TAM and treated 2 days later.
RNA extraction from cells was carried out using a Purelink™ RNA kit (Invitrogen) according to the manufacturer's instructions. BMDMs were treated as required, and following treatment were instantly lysed in 350 μl RNA lysis buffer. Isolated RNA was quantified using a NanoDrop 2000 spectrophotometer, and RNA concentration was normalised to the lowest concentration across all samples with RNAse-free water. If necessary, samples were DNAse-treated after quantification using DNAse I (Thermo Fisher) according to the manufacturer's instructions. Isolated RNA samples were normalised and converted into cDNA using the High-Capacity cDNA Reverse Transcription Kit (Thermo Fisher) according to manufacturer's instructions. 10 μl of RNA (at a maximum concentration of 100 ng/μl) was added to 10 μl of reverse transcription master mix to complete the reaction mixture. Real-time quantitative PCR was performed on the cDNA generated in the previous step, using primers designed in-house and ordered from Eurofins Genomics, as detailed in Table S2. The reaction was performed in a 96-well qPCR plate by a 7500 Fast Real-Time PCR machine (Thermo Fisher). Relative expression (2^−ΔΔCT) was calculated from the CT values for each sample and gene of interest.
Pre-designed silencer select siRNAs for Cgas (s103166), Tmem173 (s91058), Tlr3 (s100579), Tlr9 (s96268), As/(s99640), Tlr7 (s100720), Ddx58 (s106376), Ifih1 (s89787), Nrf2 (s70522), Atf4 (s62689) and negative control (4390843) were ordered from Thermo Fisher. siRNA sequences are given in Table S2. Cells were transfected with 50 nM siRNA using 5 μl lipofectamine RNAiMAX according to manufacturer's instructions (Thermo Fisher). Cells were transfected in medium without serum and antibiotics which was replaced with complete medium 8 hours later. Cells were subsequently left for at least a further 12 hours prior to treatment.
In general terms: Quantitative PCR measures a nucleic acid by following its amplification.

The test system of experiment [2] is BMDMs. Put plainly: Western blotting of signalling proteins in BMDMs. It counts as cell-based, mouse. The conditions noted are these: for IFN-β-induced STAT1 and JAK1 phosphorylation / upstream kinases (AKT, JNK, ERK and p38), total and phospho levels: BMDMs pre-treated with DMSO, FHIN1 or DMF. The procedure:
as §1
Supernatant was removed from cells following stimulation and lysates were harvested in 30-50 μl lysis buffer (0.125 M Tris pH 6.8, 10% glycerol, 0.02% SDS, 5% DTT) Lysates were subsequently heated to 95° C. for 5 mins to denature proteins. SDS-PAGE was used to resolve proteins by molecular weight. Samples were boiled at 95° C. for 5 mins prior to loading into a 5% stacking gel. The percentage resolving gel depended on the molecular weight of the given protein. The Bio-Rad gel running system was used to resolve proteins and the Bio-Rad wet transfer system was used for the electrophoretic transfer of proteins onto PVDF membrane. Following transfer, the membrane was incubated in milk powder (5% in TBST) for 1 hr and subsequently incubated in primary antibody rolling overnight at 4° C. Primary antibodies targeting phospho-proteins were diluted in BSA (5% in TBST) as opposed to milk. The membrane was incubated for 1 hr with secondary antibody (diluted in 5% milk powder) at room temperature. Prior to visualisation, the membrane was immersed in WesternBright ECL Spray (Advansta). Protein visualisation took place on a ChemiDoc MPTM Imaging System (Bio-Rad), and both chemiluminescent and white light images were taken. Images were analysed using Image Lab 6.0.1 (Bio-Rad).

As to `COC(=O)/C=C/C(=O)OC` [DMF, dimethyl fumarate], in the experiment with BMDMs [1] (LPS 4 h), the IL-1β expression result is “reduced”, the Il10 expression entry is “decreased” and the Tnfa expression result is reported as “increased”. In addition, the Tmem173 expression entry in the experiment on BMDMs [1] (BMDMs pre-treated, LPS 4 h) is reported as “Suppression”. For the same molecule, in the experiment on BMDMs [1] (BMDMs, LPS 4 h), the “Ifnb1 expression following Nrf2 silencing” value was “increased”. Further, the “LPS-induced p65 phosphorylation” value in the experiment with BMDMs [2] (BMDMs pre-treated) is “modestly augment”. In the experiment on BMDMs [2], the “IFN-β-induced STAT1 and JAK1 phosphorylation” value is recorded as “limited”; the “upstream kinases (AKT, JNK, ERK and p38), total and phospho levels” value was “did not observe changes”.

`CCOC(=O)[C@@]12CCCC=C1N(Cc1ccc(-c3ccccc3)cc1)C(=O)[C@H]2CC(=O)NC` [FHIN1, Fumarate hydratase-IN-1]: in the experiment with BMDMs [1] (LPS 4 h), the IL-1β expression result is on record as “reduced”, the Il10 expression result is “decreased” and the Tnfa expression result is reported as “increased”. In addition, in the experiment on BMDMs [1] (BMDMs pre-treated, LPS 4 h), the Ddx58 expression result is given as “reduced” and the Tmem173 expression result was “Suppression”. Also, the “Ifnb1 expression following Nrf2 silencing” value with BMDMs [1] (BMDMs, LPS 4 h) is “increased”. The “dependence of the FHIN1 IFN-β increase on NAC-sensitive redox stress (Ifnb1 expression)” value in the experiment with BMDMs [1] (BMDMs, in the presence of NAC, LPS 4 h) was “independent of NAC-sensitive redox stress”. Besides, the “dependence of FHIN1-driven GDF15 on NRF2 and ATF4” value in the experiment on BMDMs [1] (BMDMs, silencing of Nrf2 or Atf4, LPS 4 h) is listed as “partly NRF2-but not ATF4-dependent”. For the same molecule, the “induction of IFN-β (Ifnb1) in MAVS knockout BMDMs” value in the experiment on BMDMs [1] (WT and Mavs−/− BMDMs, LPS 4 h) is “did not impair”. Besides, in the experiment with BMDMs [2] (BMDMs pre-treated), the “LPS-induced IL-1β expression (IL-1β levels)” value is given as “not increased” and the “LPS-induced p65 phosphorylation” value is “modestly augment”. Besides, in the experiment on BMDMs [2], the “IFN-β-induced STAT1 and JAK1 phosphorylation” value is listed as “limited”; the “upstream kinases (AKT, JNK, ERK and p38), total and phospho levels” value is given as “did not observe changes”. For the same molecule, in the experiment with BMDMs [2] (BMDMs pre-treated, LPS 4 h), the “LPS-induced TRAF3 levels” value is given as “not increased” and the TBK1 phosphorylation entry was “increased”. For the same molecule, the STAT3 phosphorylation entry with BMDMs [2] (BMDMs pre-treated, co-treated with recombinant IL-10 100 ng/ml, LPS 4 h) was “failed to impair”.
